Patent US10407423B2, “Compounds as inhibitors of DNA methyltransferases” (FUNDACIÓN PARA LA INVESTIGACIÓN MÉDICA APLICADA, priority 2015, dated 2019)

Tests used:
human G9a enzyme = human G9a enzyme (Homo sapiens (Human), UniProt Q96KQ7); assay: G9a enzyme activity assay (TR-FRET); assay type: biochemical; conditions: 1 hour at room temperature
Procedure: G9a Enzyme Activity Assay
The biochemical assay to measure G9a enzyme activity relies on time-resolved fluorescence energy transfer (TR-FRET) between europium cryptate (donor) and XL665 (acceptor). TR-FRET is observed when biotinylated histone monomethyl-H3K9 peptide is incubated with cryptate-labeled anti-dimethyl-histone H3K9 antibody (CisBio Cat#61KB2KAE) and streptavidin XL665 (CisBio Cat#610SAXLA), after enzymatic reaction of G9a.
The human G9a enzyme expressed in a baculovirus infected Sf9 cell expression system was obtained from BPS Biosciences (Cat. #51001). Enzyme activity assay was carried out in a white 384-well plate in a final volume of 20 μl, as follow: • 4 μl of vehicle or studied compound 2.5× concentrated prepared in assay buffer (50 mM Tris-HCl, 10 mM NaCl, 4 mM DTT, 0.01% Tween-20 pH9). Final percentage of DMSO was 0.5%. • 2 μl of 1 nM G9a enzyme diluted in assay buffer. Final concentration was 0.2 nM. • Start the reaction by adding 4 μl of substrate mixture containing 20 μM S-adenosylmethionine and 40 nM biotinylated histone monomethyl-H3K9 peptide. • Reaction was carried out during 1 hour at room temperature. • Enzyme activity was stopped by adding 5 μl of cryptate-labeled anti-dimethyl-histone H3K9 antibody. Final concentration 150 nM. • Then, add 5 μl of streptavidin XL665 beads. Final concentration of 16 μM. • Read the plate after 1 hour of incubation at room temperature.
(§1) For each well, fluorescence was measured at 620 nm and 665 nm. A ratio (665 nm/620 nm) was then calculated in order to minimize medium interferences. Positive control was obtained in the presence of the vehicle of the compounds. Negative control was obtained in the absence of G9a enzyme activity. Calculated IC50 values were determined using GraphPrism using 4-parameters inhibition curve.

human DNMT1 = human DNMT1 (Homo sapiens (Human), UniProt P26358); assay: DNMT1 enzyme activity assay (TR-FRET, EPIgeneous methyltransferase assay); assay type: biochemical; conditions: 15 minutes at 37° C.
Procedure: DNMT1 Enzyme Activity Assay
The biochemical assay to measure DNMT1 enzyme activity relies on time-resolved fluorescence energy transfer (TR-FRET) between lumi4-Tb (donor) and d2 (acceptor) using the EPlgeneous methyltransferase assay (CisBio Cat#62SAHPEB). TR-FRET is observed when antibody specific to S-adenosylhomocysteine labeled with Lumi4-Tb is incubated with d2-labeled S-adenosylhomocysteine. TR-FRET signal is inversely proportional to the concentration of SAH, product of DNMT1 enzyme activity, in the sample. The human DNMT1 was obtained from Reaction Biology Corp. (Cat# DMT-21-124).
Enzyme activity assay was carried out in a white 384-well plate in a final volume of 20 μl, as follow: • 4 μl of vehicle or studied compound 2.5× concentrated prepared in assay buffer (50 mM Tris-HCl, 1 mM EDTA, 1 mM DTT, 0.1% Triton X-100, 5% glycerol pH 7.5). Final percentage of DMSO was 0.5%. • 2 μl of […] DNMT1 enzyme diluted in assay buffer. Final concentration was 20 nM. • Start the reaction by adding 4 μl of substrate mixture containing 1 μM S-adenosylmethionine and 1 μM poly-deoxy inosine poly-deoxy cytosine (pdI-pdC) DNA. • Reaction was carried out during 15 minutes at 37° C. • Enzyme activity was stopped by adding 2 μl of buffer one of the EPIgeneous methyltransferase assay. • After 10 minutes at room temperature, it was added 4 μl of antibody specific to S-adenosylhomocysteine labeled with Lumi4-Tb 50× diluted in buffer two of the EPIgeneous methyltransferase assay. • Add 4 μl of d2-labeled S-adenosylhomocysteine 31× diluted in buffer two of the EPIgeneous methyltransferase assay. • Read the plate after 1 hour of incubation at room temperature.
as §1

[1] = test system: CEMO-1 cells (acute lymphocytic leukemia, ALL); assay: Cell proliferation assay (CellTiter 96 Aqueous One), CEMO-1; assay type: cell-based; conditions: CEMO-1 (ALL), 48 hours of treatment
Procedure: (§2) Cell proliferation was analyzed after 48 hours of in vitro treatment using the CellTiter 96 Aqueous One Solution Cell Proliferation Assay (Promega, Madison, W). This is a colorimetric method for determining the number of viable cells in proliferation.
(§3) For the assay, suspension cells were cultured by triplicate at a density of 1×10^6 cells/ml in 96-well plates (100.000 cells/well, 100 μl/well), except for OCI-Ly3 and OCI-Ly10 cell lines which were cultured at a density of 0.5×10^6 cells/ml (50,000 cells/well, 100 μl/well) and for HepG2, Hep3B and PLC/PRF/5 cell lines which were cultured at a density of 3000 cells/well, 100 μl/well). Adherent cells were obtained from 80-90% confluent flasks and 100 μl of cells were seeded at a density of 5000 cells/well in 96-well plates by triplicate. Before addition of the compounds, adherent cells were allowed to attach to the bottom of the wells for 12 hours. In all cases, only the 60 inner wells were used to avoid any border effects.
(§4) After 48 hours of treatment, plates with suspension cells were centrifuged at 800 g for 10 minutes and medium was removed. The plates with adherent cells were flicked to remove medium. Then, cells were incubated with 100 μl/well of medium and 20 μl/well of CellTiter 96 Aqueous One Solution reagent. After 1-3 hours of incubation at 37° C., absorbance was measured at 490 nm in a 96-well plate reader. The background absorbance was measured in wells with only cell line medium and solution reagent. Data was calculated as a percentage of total absorbance of treated cell/absorbance of non treated cells.
(§5) These cancer cell lines and primary cultures correspond to acute lymphocytic leukemia (ALL), CEMO-1, to activated B-cell-like diffuse large B-cell lymphoma (ABC-DLBCL), OCI-Ly3 and OCI-Ly10 and to hepatocellular carcinoma cells (HCC), HepG2, Hep3B and PLC/PRF/5.

[2] = test system: HepG2 cells (hepatocellular carcinoma); assay: Cell proliferation assay (CellTiter 96 Aqueous One), HepG2; assay type: cell-based; conditions: Homo sapiens; HepG2 (HCC), 48 hours of treatment
Procedure: as §2, §3, §4, §5

[3] = test system: Hep3B cells (hepatocellular carcinoma); assay: Cell proliferation assay (CellTiter 96 Aqueous One), Hep3B; assay type: cell-based; conditions: Homo sapiens; Hep3B (HCC), 48 hours of treatment
Procedure: as §2, §3, §4, §5

Sequence of human DNMT1 (P26358 whole entry): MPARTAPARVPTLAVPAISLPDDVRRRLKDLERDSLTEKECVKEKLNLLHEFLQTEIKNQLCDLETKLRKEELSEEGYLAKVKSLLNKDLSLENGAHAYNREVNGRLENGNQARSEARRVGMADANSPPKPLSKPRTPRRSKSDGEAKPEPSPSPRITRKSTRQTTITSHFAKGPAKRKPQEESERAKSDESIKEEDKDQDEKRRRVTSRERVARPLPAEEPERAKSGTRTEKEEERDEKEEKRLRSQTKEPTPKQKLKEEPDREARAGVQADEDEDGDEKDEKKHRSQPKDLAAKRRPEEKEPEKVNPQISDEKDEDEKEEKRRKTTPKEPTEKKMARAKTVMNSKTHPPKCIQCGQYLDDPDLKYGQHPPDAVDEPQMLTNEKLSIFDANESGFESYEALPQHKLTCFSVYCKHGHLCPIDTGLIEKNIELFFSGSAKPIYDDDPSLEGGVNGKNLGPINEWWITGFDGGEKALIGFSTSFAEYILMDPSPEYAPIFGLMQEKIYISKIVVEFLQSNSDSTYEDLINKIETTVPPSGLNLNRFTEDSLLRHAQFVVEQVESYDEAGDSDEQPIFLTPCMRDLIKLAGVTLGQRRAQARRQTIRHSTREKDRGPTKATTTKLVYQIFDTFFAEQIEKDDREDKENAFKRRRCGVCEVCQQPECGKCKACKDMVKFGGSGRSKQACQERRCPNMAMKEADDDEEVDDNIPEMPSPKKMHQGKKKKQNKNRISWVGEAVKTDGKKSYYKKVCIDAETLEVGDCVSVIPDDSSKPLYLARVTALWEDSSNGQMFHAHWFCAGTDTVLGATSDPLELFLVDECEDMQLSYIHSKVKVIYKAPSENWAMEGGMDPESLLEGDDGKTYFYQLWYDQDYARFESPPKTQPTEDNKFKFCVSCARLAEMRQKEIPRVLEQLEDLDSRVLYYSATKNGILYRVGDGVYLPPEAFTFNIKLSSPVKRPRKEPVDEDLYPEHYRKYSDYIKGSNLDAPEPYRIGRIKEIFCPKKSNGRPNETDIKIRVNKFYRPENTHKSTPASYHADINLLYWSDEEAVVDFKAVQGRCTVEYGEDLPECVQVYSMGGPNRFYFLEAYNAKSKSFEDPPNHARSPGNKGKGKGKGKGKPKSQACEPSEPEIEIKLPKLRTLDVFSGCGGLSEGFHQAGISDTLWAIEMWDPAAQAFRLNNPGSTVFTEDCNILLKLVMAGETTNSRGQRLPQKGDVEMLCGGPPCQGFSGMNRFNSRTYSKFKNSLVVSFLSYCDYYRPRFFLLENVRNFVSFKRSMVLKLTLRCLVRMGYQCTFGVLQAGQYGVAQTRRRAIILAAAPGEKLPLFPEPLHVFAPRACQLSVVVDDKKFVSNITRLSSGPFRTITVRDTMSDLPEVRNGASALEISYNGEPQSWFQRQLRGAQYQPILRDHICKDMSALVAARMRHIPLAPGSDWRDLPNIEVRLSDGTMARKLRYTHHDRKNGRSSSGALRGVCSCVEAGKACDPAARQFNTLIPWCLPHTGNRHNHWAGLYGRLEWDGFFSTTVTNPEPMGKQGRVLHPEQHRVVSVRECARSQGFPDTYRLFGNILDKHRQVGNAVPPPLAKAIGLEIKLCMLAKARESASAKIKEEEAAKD
Sequence of human G9a enzyme (Q96KQ7 whole entry): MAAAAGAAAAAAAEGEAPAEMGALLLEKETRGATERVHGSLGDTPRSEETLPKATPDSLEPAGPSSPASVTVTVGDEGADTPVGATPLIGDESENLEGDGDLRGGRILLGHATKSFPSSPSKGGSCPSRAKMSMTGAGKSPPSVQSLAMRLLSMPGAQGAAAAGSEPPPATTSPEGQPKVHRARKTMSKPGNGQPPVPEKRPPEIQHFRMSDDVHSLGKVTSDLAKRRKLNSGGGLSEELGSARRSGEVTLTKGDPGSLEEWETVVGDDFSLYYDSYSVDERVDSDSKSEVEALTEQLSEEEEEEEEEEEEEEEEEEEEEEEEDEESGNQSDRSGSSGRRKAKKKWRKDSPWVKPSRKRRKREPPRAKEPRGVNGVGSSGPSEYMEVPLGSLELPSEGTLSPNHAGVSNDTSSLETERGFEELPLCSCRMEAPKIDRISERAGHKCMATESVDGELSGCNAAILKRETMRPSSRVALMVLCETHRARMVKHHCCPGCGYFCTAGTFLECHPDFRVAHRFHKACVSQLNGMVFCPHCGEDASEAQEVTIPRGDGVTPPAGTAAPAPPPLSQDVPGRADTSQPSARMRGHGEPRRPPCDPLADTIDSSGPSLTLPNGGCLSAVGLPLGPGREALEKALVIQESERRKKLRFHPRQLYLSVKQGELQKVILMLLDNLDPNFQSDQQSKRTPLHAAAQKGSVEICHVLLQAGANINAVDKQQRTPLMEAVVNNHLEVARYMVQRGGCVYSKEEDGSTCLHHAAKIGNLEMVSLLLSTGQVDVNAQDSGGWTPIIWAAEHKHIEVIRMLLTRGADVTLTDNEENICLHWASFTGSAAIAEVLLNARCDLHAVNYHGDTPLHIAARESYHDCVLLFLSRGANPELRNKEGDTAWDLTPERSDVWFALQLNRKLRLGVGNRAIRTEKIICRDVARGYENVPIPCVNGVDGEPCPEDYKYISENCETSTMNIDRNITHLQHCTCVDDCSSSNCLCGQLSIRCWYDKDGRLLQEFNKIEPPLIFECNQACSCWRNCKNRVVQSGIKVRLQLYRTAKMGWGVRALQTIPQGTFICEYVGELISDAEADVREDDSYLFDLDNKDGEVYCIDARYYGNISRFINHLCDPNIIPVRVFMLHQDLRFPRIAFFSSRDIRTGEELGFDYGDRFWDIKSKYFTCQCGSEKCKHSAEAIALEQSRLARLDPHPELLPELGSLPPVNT

Row | Structure (SMILES) | IC50 (human G9a enzyme) [nM] | IC50 (human DNMT1) [nM] | GI50 [1] [nM] | GI50 [2] [nM] | GI50 [3] [nM]
1 | COc1cc2c3c(c(-c4ccc(C)o4)nc2cc1OCCCN1CCCC1)CCC(CC1CCN(C2CCCCC2)CC1)N3 (stereo not drawn) [Compound 2-12, 2-[(1-cyclohexyl-4-piperidyl)methyl]-9-methoxy-5-(5-methyl-2-furyl)-8-(3-pyrrolidin-1-ylpropoxy)-1,2,3,4-tetrahydrobenzo[h][1,6]naphthyridine] | < 100 | 500 to 1000 | 100 to 1000 | 100 to 1000 | 100 to 1000
2 | COc1cc2c(cc1OCCCN1CCCC1)nc(-c1ccc(C)o1)c1c(=O)n(CC3CCN(C)CC3)[nH]c12 [Compound 4-04, 8-methoxy-4-(5-methyl-2-furyl)-2-[(1-methyl-4-piperidyl)methyl]-7-(3-pyrrolidin-1-ylpropoxy)-1H-pyrazolo[4,3-c]quinolin-3-one] | > 10000 | 1000 to 10000 |  |  | 
3 | COc1cc2c(cc1OCCCN1CCCC1)nc(-c1ccc(C)o1)c1c(=O)n(CC3CCN(C)CC3)n(CC3CCN(C)CC3)c12 [Compound 4-05, 8-methoxy-4-(5-methyl-2-furyl)-1,2-bis[(1-methyl-4-piperidyl)methyl]-7-(3-pyrrolidin-1-ylpropoxy)pyrazolo[4,3-c]quinolin-3-one] | > 10000 | 1000 to 10000 |  |  | 
4 | COc1cc2c3c(c(-c4ccc(C)o4)nc2cc1OCCCN1CCCC1)CCC(CC1CCNCC1)N3 (stereo not drawn) [Compound 2-05, 9-methoxy-5-(5-methyl-2-furyl)-2-(4-piperidylmethyl)-8-(3-pyrrolidin-1-ylpropoxy)-1,2,3,4-tetrahydrobenzo[h][1,6]naphthyridine] | < 100 | 500 to 1000 |  |  | 
5 | COc1cc2c(cc1OCCCN1CCCC1)nc(-c1ccccc1)c1cc(CC3CCN(C)CC3)[nH]c12 [Compound 1-05] | 100 to 500 | 500 to 1000 |  |  | 
6 | COc1cc2c3c(c(-c4ccc(C)o4)nc2cc1OCCCN1CCCC1)CCCN3CCCN1CCCC1 [Compound 2-04, 9-methoxy-5-(5-methyl-2-furyl)-8-(3-pyrrolidin-1-ylpropoxy)-1-(3-pyrrolidin-1-ylpropyl)-3,4-dihydro-2H-benzo[h][1,6]naphthyridine] | > 10000 | 500 to 1000 |  |  | 
7 | COc1cc2c3c(c(-c4cc(C)oc4C)nc2cc1OCCCN1CCCC1)CCC(CC1CCN(C)CC1)N3 (stereo not drawn) [Compound 2-13, 9-methoxy-5-(2,5-dimethyl-3-furyl)-2-[(1-methyl-4-piperidyl)methyl]-8-(3-pyrrolidin-1-ylpropoxy)-1,2,3,4-tetrahydrobenzo[h][1,6]naphthyridine] | < 100 | 1000 to 10000 |  |  | 
8 | COc1cc2c3c(c(-c4ccc(C)o4)nc2cc1OCCCN1CCCC1)CCCN3 [Compound 2-03, 9-methoxy-5-(5-methyl-2-furyl)-8-(3-pyrrolidin-1-ylpropoxy)-1,2,3,4-tetrahydrobenzo[h][1,6]naphthyridine] | < 100 | 1000 to 10000 | 1000 to 10000 |  | 
9 | COc1ccc2c3c(c(-c4ccc(C)o4)nc2c1)CCCN3 [Compound 2-01, 8-methoxy-5-(5-methyl-2-furyl)-1,2,3,4-tetrahydrobenzo[h][1,6]naphthyridine] | > 10000 | 1000 to 10000 |  |  | 
10 | COc1cc2c(cc1OCCCN1CCCC1)nc(-c1ccc(C)o1)c1ccc(CC3CCN(C)CC3)nc12 [Compound 3-03, 9-methoxy-5-(5-methyl-2-furyl)-2-[(1-methyl-4-piperidyl)methyl]-8-(3-pyrrolidin-1-ylpropoxy)benzo[h][1,6]naphthyridine] | < 100 | 1000 to 10000 |  |  | 
11 | COc1cc2c3c(c(-c4ccc(C)o4)nc2cc1OCCCN1CCCC1)CC[C@H](CC1CCN(C)CC1)N3 (single isomer, unassigned) [Compound 2-09] | < 100 | 500 to 1000 |  |  | 
12 | COc1cc2c3c(c(-c4ccc(C)o4)nc2cc1OCCCN1CCCC1)CCC(CC1CCN(C(C)=O)CC1)N3 (stereo not drawn) [Compound 2-11, 1-[4-[[9-methoxy-5-(5-methyl-2-furyl)-8-(3-pyrrolidin-1-ylpropoxy)-1,2,3,4-tetrahydrobenzo[h][1,6]naphthyridin-2-yl]methyl]-1-piperidyl]ethanone] | < 100 | 1000 to 10000 |  |  | 
13 | COc1cc2c(cc1OCCCN1CCCC1)nc(-c1ccc(C)o1)c1ccc(CC3CCNCC3)nc12 [Compound 3-02, 9-methoxy-5-(5-methyl-2-furyl)-2-(4-piperidylmethyl)-8-(3-pyrrolidin-1-ylpropoxy)benzo[h][1,6]naphthyridine] | 100 to 500 | 500 to 1000 |  |  | 
14 | COc1cc2c(cc1OCCCN1CCCC1)nc(-c1ccc(C)o1)c1cccnc12 [Compound 3-01, 9-methoxy-5-(5-methyl-2-furyl)-8-(3-pyrrolidin-1-ylpropoxy)benzo[h]-[1,6]naphthyridine] | 1000 to 10000 | 1000 to 10000 |  |  | 
15 | Cc1ccc(-c2nc3cc(OCCCN4CCCC4)ccc3c3c2CCCN3)o1 [Compound 2-02, 5-(5-methyl-2-furyl)-8-(3-pyrrolidin-1-ylpropoxy)-1,2,3,4-tetrahydrobenzo[h][1,6]naphthyridine] | 1000 to 10000 | 500 to 1000 |  |  | 
16 | COc1cc2c3c(c(-c4ccc(C)o4)nc2cc1OCCCN1CCCC1)CC[C@@H](CC1CCN(C)CC1)N3 (single isomer, unassigned) [Compound 2-10] | < 100 | 500 to 1000 |  |  | 
17 | COc1cc2c(cc1OCCCN1CCCC1)nc(-c1cc(C)oc1C)c1ccc(CC3CCN(C)CC3)nc12 [Compound 3-04, 9-methoxy-5-(2,5-dimethyl-3-furyl)-2-[(1-methyl-4-piperidyl)methyl]-8-(3-pyrrolidin-1-ylpropoxy)benzo[h][1,6-]naphthyridine] | 100 to 500 | > 10000 |  |  | 
18 | COc1cc2c(cc1OCCCN1CCCC1)nc(-c1ccc(C)o1)c1c(=O)n(C3CCN(C)CC3)[nH]c12 [Compound 4-03, 8-methoxy-4-(5-methyl-2-furyl)-2-(1-methyl-4-piperidyl)-7-(3-pyrrolidin-1-ylpropoxy)-1H-pyrazolo[4,3-c]quinolin-3-one] | > 10000 | 1000 to 10000 |  |  | 
19 | COc1cc2c(cc1OCCCN1CCCC1)nc(-c1cc(C)oc1C)c1cc(CC3CCN(C)CC3)[nH]c12 [Compound 1-06] | 500 to 1000 | 1000 to 10000 |  |  | 
